According to US20260373132A1, “PERK INHIBITORHC-5404 IN COMBINATION WITH ANTI-PD-1 ANTIBODY AND/OR AN ANTIANGIOGENETIC AGENT FOR USE IN THE TREATMENT OF CANCER” (HIBERCELL, INC., priority 2022, published 2026):

Tested on: human cord blood-derived MDSCs / CD3 T cells
Assay: human T cell suppression assay with human cord blood-derived MDSCs
Type: cell-based
Conditions: 500 or 750 nM (FIG. 10A, 10C)
Procedure: Human MDSC Preparation: Fresh cord blood was obtained from NDRI (Protocol ID #RCHA4 01). Mononuclear cells were enriched from cord blood by Lymphoprep density gradient centrifugation, followed by CD34+ cell isolation using EasySep Human Cord Blood CD34 Positive selection Kit II, and the enriched CD34+ cells were cultured in a 48-well plate (BD Falcon, Bedford, MA) at 1×10^5 cells/well/ml of IMDM complete medium (IMDM supplemented with 10% FBS, 1× penicillin-streptomycin and 2 mM L-glutamax). 100 ng/ml human GM-CSF, 100 ng/ml human G-CSF and 50 ng/ml human SCF were added to the IMDM complete medium and cells were expanded for 13-14 days in a 37 °C, 5% CO2 humidified incubator and medium was refreshed on day 7. MDSC differentiation was induced by culturing the expanded CD34+ cells in a 24 well plate at 0.1-0.15×10^6 cells/well in 2 ml of IMDM complete medium supplemented with 100 ng/ml human GM-CSF, 50 ng/mL G-CSF and 30 ng/ml IL-6 for additional 6-7 days with medium changed on day 3. […]
Human T cell Suppression Assay. […] T cell proliferation was analyzed by flow cytometry. […] The labeled cells were analyzed on a BD Fortessa cytometer and data was analyzed by FlowJo. […] Data were analyzed using one-way ANOVA with multiple comparison corrected with Dunnett test. *P<0.05; **P<0.01; ***P<0.005, ****P<0.0001 (FIGS. 10A, 10B, and 10C).

SMILES: Cc1cc(NC(=O)[C@H](O)c2cc(F)cc(F)c2)ccc1-c1cnc(N)c(C(=O)NC(C)C)c1 [HC-5404, (R)-2-amino-5-(4-(2-(3,5-difluorophenyl)-2-hydroxyacetamido)-2-methylphenyl)-N-isopropylnicotinamide]
- inhibition of T-cells by MDSCs: reduced inhibition of T-cells
